Converted amounts (≈) assume the structure as drawn. “And” between values parts separate entries of the source, which are not always exact repeats. Equal values may be shown once. Read-outs that look alike come from different tables or passages of the source.
What was measured:
[1] = system: C. laurentii ATCC 34142; experiment: Broth macrodilution MIC/MFC; assay type: cell-based, Cryptococcus laurentii
Experimental: (§1) TMPN was screened against yeasts by the broth macrodilution assay according to the NCCLS [7]. Yeasts were suspended and diluted as recommended to yield final inocula ranging from 0.5-2.5×10^3 cfu/ml. Tests were performed in sterile 12 by 75 mm plastic tubes containing two-fold dilutions of TMPN in 0.165 M morpholinepropanesulfonic acid buffered RPMI 1640 medium (pH 7.0). One tube was again left drug free (but contained an equivalent volume of DMSO) for a turbidity control. Tubes were incubated without agitation at the appropriate temperature (see Fungal Strains section above). MICs were determined after 72 h for Cryptococcus and after 48 h for other yeast genera. The MIC was defined as the lowest concentration of TMPN that inhibited all visible growth of the test organism (optically clear).
(§2) Minimum fungicidal concentrations (MFCs) were determined by subculturing 0.1 ml from each tube with no visible growth in the MIC broth macrodilution series onto the appropriate drug-free plates (see Fungal Strains section above).

[2] = system: C. laurentii ATCC 18803; experiment: Broth macrodilution MIC/MFC; assay type: cell-based, Cryptococcus laurentii
Experimental: as §1, §2

[3] = system: C. laurentii ATCC 66036; experiment: Broth macrodilution MIC/MFC; assay type: cell-based, Cryptococcus laurentii
Experimental: as §1, §2

[4] = system: T. asahii ATCC 20039; experiment: Broth macrodilution MIC/MFC; assay type: cell-based, Trichosporon asahii
Experimental: as §1, §2

[5] = system: C. utilis ATCC 22023; experiment: Broth macrodilution MIC/MFC; assay type: cell-based, Candida utilis
Experimental: as §1, §2

[6] = system: C. utilis ATCC 9226; experiment: Broth macrodilution MIC/MFC; assay type: cell-based, Candida utilis
Experimental: as §1, §2

[7] = system: C. albicans ATCC 90028; experiment: Broth macrodilution MIC/MFC; assay type: cell-based, Candida albicans; conditions: for MFC: Candida albicans ATCC 90028; for MIC: Candida albicans
Experimental: as §1, §2
Possible host effects were also evaluated. Broth macrodilution assays were performed with RPMI medium prepared at pH 5, pH 6, and pH 7, and in RPMI medium with and without 50% normal human serum (Lampire Biological Labs). The pH experiments were performed twice on separate days.

[8] = system: Enterococcus faecalis ATCC 29212; experiment: NCCLS disk susceptibility test; assay type: cell-based; conditions: disk diffusion
Experimental: (§3) Antimicrobial activity was assayed by National Committee for Clinical Laboratory Standards (NCCLS) disk susceptibility tests. Isolated colonies from overnight cultures were suspended and diluted as recommended to yield approximately 1-2×10^8 cfu/ml, and 50 μl of this preparation immediately spread on agar plates. NCCLS recommended agar media were used for S. pneumoniae and N. gonorrhoeae, and Mueller-Hinton agar for all other bacteria. Yeast strains were tested on SDA. Excess moisture was absorbed for 10 min prior to application of 6 mm paper discs containing two-fold dilutions of TMPN in sterile DMSO.

[9] = system: Candida albicans ATCC 90028; experiment: NCCLS disk susceptibility test; assay type: cell-based; conditions: disk diffusion
Experimental: as §3

[10] = system: Streptococcus pneumoniae ATCC 6303; experiment: NCCLS disk susceptibility test; assay type: cell-based; conditions: disk diffusion
Experimental: as §3

[11] = system: Bacillus subtilis Presque Isle 620; experiment: NCCLS disk susceptibility test; assay type: cell-based; conditions: disk diffusion
Experimental: as §3

[12] = system: Micrococcus luteus Presque Isle 456; experiment: NCCLS disk susceptibility test; assay type: cell-based; conditions: disk diffusion
Experimental: as §3

[13] = system: Cryptococcus neoformans ATCC 90112; experiment: NCCLS disk susceptibility test; assay type: cell-based; conditions: disk diffusion
Experimental: as §3

[14] = system: Staphylococcus aureus ATCC 29213; experiment: NCCLS disk susceptibility test; assay type: cell-based; conditions: disk diffusion
Experimental: as §3

[15] = system: Staphylococcus epidermidis Presque Isle 4653; experiment: NCCLS disk susceptibility test; assay type: cell-based; conditions: disk diffusion
Experimental: as §3

[16] = system: Klebsiella pneumoniae Presque Isle 344; experiment: NCCLS disk susceptibility test; assay type: cell-based; conditions: disk diffusion
Experimental: as §3

[17] = system: Neisseria gonorrhoeae ATCC 49226; experiment: NCCLS disk susceptibility test; assay type: cell-based; conditions: disk diffusion
Experimental: as §3

[18] = system: Proteus vulgaris Presque Isle 365; experiment: NCCLS disk susceptibility test; assay type: cell-based; conditions: disk diffusion
Experimental: as §3

[19] = system: Pseudomonas aeruginosa Presque Isle 99; experiment: NCCLS disk susceptibility test; assay type: cell-based; conditions: disk diffusion
Experimental: as §3

[20] = system: Escherichia coli ATCC 25922; experiment: NCCLS disk susceptibility test; assay type: cell-based; conditions: disk diffusion
Experimental: as §3

[21] = system: Enterobacter cloacae ATCC 13047; experiment: NCCLS disk susceptibility test; assay type: cell-based; conditions: disk diffusion
Experimental: as §3

[22] = system: T1, bovine brain tubulin; experiment: Tubulin polymerization assay; assay type: biochemical; conditions: 1 mg/ml tubulin; 20 min incubation at 30° C.
T1 construct: Electrophoretically homogeneous bovine brain tubulin [12]
Experimental: Electrophoretically homogeneous bovine brain tubulin [12] was used in studies to evaluate the effects of TMPN on in vitro tubulin polymerization and the binding of […] (Dupont-NEN) to tubulin. These studies were performed as described previously. In the polymerization assay, varying drug concentrations were added to 1 mg/ml tubulin to determine the amount of drug that would inhibit the extent of the reaction by 50% (20 min incubation at 30° C.) (IC50 value). In the colchicine binding assay, the effect of varying drug concentrations on the binding of 2 μg/ml colchicine to 100 μg/ml tubulin was measured after 10 min at 37° C. (control reaction about 50% complete).

[23] = system: all 60 Candida spp. clinical isolates; experiment: Broth macrodilution MFC/MIC ratios, combined Candida isolates; assay type: cell-based; conditions: all 60 Candida spp. clinical isolates combined
Experimental: as §1, §2

For `COc1cc(C=C[N+](=O)[O-])cc(OC)c1OC` [TMPN, 1-(3′,4′,5′-trimethoxyphenyl)-2-nitro-ethylene], the “MFC Range” value [1] was 32 µg/mL (≈ 134 µM), the “MIC Range” value [1] was 32 µg/mL (≈ 134 µM) and the “MFC Range” value [2] was 32 µg/mL (≈ 134 µM). The “MIC Range” value [2] was 16 µg/mL (≈ 66.9 µM), the “MFC Range” value [3] was 32 µg/mL (≈ 134 µM) and the “MIC Range” value [3] was 16 µg/mL (≈ 66.9 µM). For the same compound, the “MFC Range” value [4] was 16 µg/mL (≈ 66.9 µM), the “MIC Range” value [4] was 8 µg/mL (≈ 33.4 µM) and the “MFC Range” value [5] was 8 µg/mL (≈ 33.4 µM). The “MIC Range” value [5] was 8 µg/mL (≈ 33.4 µM), the “MFC Range” value [6] was 8 µg/mL (≈ 33.4 µM) and the “MIC Range” value [6] was 4 µg/mL (≈ 16.7 µM). The MFC ([7]; ATCC90028, no serum, read-out: MFC) was 32 µg/mL (≈ 134 µM), the MFC ([7]; ATCC90028, pH 5, read-out: MFC) was 32 µg/mL (≈ 134 µM) and the MFC ([7]; ATCC90028, pH 6, read-out: MFC) was 32 µg/mL (≈ 134 µM). The MFC ([7]; ATCC90028, pH 7, read-out: MFC) was 32 µg/mL (≈ 134 µM), the “MFC Range” value ([7]; C. albicans ATCC 90028) was 32 µg/mL (≈ 134 µM) and the “MIC Range” value ([7]; C. albicans ATCC 90028) was 32 µg/mL (≈ 134 µM). The MFC ([7]; 20 μg/ml bovine serum albumin) was 32 (32) μg/ml, the MFC ([7]; 40 μg/ml bovine serum albumin) was 32 µg/mL (≈ 134 µM) and the MFC ([7]; no bovine serum albumin) was 32 (32) μg/ml. The MFC ([7]; pH 5, repeat experiment) was 32 (32), 32 (32) μg/ml, the MFC ([7]; pH 6, repeat experiment) was 32 (32), 32 (32) μg/ml and the MFC ([7]; pH 7, repeat experiment) was 32 (32), 32 (32) μg/ml. It also gave an MIC ([7]; ATCC90028, Candida albicans ATCC 90028, 20 μg/ml bovine serum albumin) of 32 µg/mL (≈ 134 µM), an MIC ([7]; ATCC90028, Candida albicans ATCC 90028, 40 μg/ml bovine serum albumin) of 16 µg/mL (≈ 66.9 µM) and an MIC ([7]; ATCC90028, Candida albicans ATCC 90028, 50% human serum) greater than 64 µg/mL. For the same compound, the MIC ([7]; ATCC90028, Candida albicans ATCC 90028, no bovine serum albumin) was 32 µg/mL (≈ 134 µM), the MIC ([7]; ATCC90028, Candida albicans ATCC 90028, no serum) was 32 µg/mL (≈ 134 µM) and the MIC ([7]; ATCC90028, pH 5, Candida albicans ATCC 90028, pH 5) was 32 µg/mL (≈ 134 µM). The MIC ([7]; ATCC90028, pH 5, Candida albicans ATCC 90028, pH 5, repeat experiment) was 32 µg/mL (≈ 134 µM), the MIC ([7]; ATCC90028, pH 6, Candida albicans ATCC 90028, pH 6) was 32 µg/mL (≈ 134 µM) and the MIC ([7]; ATCC90028, pH 6, Candida albicans ATCC 90028, pH 6, repeat experiment) was 32 µg/mL (≈ 134 µM). For the same compound, the MIC ([7]; ATCC90028, pH 7, Candida albicans ATCC 90028, pH 7) was 32 µg/mL (≈ 134 µM), the MIC ([7]; ATCC90028, pH 7, Candida albicans ATCC 90028, pH 7, repeat experiment) was 32 µg/mL (≈ 134 µM) and the MIC [8] was 50-100 μg/disk. The MIC [9] was 6.25-12.5 μg/disk, the MIC [10] was 3.12-6.25 μg/disk and the MIC [11] was 50-100 μg/disk. For the same compound, the MIC [12] was 50-100 μg/disk, the MIC [13] was 0.78-1.56 μg/disk and the MIC [14] was 3.12-6.25 μg/disk. For the same compound, the MIC [15] was 50-100 μg/disk, the MIC [16] was greater than 100 μg/disk and the MIC [17] was 0.39-0.78 μg/disk. For the same compound, the MIC [18] was 12.5-25 μg/disk, the MIC [19] was greater than 100 μg/disk and the MIC [20] was greater than 100 μg/disk. The MIC [21] was greater than 100 μg/disk, the “IC50 for inhibition of the extent of tubulin assembly” value [22] was 0.60 µg/mL and 0.60 ± 0.07 µg/mL and the “share of isolates with MFC/MIC ratio ≦2” value [23] was 47%. For the same compound, the “share of isolates with MFC/MIC ratio ≦4” value [23] was 60%.

From patent publication US20050014849A1, “Antifungal phenylethylene” (priority 2001, published 2005)
